Laboratory results: patent US4873253A, “Phenylalanine derivative and proteinase inhibitor” (Okamoto; Shosuke, priority 1987, dated 1989)
Where a name gives a salt, the structure may show the parent alone. Read-outs that look alike come from different tables or passages of the source.

Key:
bovine trypsin = target: T1, bovine trypsin (Bos taurus, UniProt P00760); experiment: Antitrypsin activity: inhibition of S-2238 decomposition; assay type: biochemical; conditions: Table 2; substrate S-2238, pH 8.1, 37° C.; read-out: Trypsin S-2238 I50
T1 sequence (P00760 24-246): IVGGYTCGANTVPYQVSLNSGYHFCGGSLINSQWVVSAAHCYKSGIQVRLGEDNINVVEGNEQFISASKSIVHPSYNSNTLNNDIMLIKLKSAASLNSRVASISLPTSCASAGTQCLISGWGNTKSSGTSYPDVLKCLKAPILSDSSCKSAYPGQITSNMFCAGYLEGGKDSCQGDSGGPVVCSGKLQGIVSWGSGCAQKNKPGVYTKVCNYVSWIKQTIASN
Method: Determination of inhibition activity against S-2238 decomposition
An inhibitor sample is dissolved in a 0.05 M Tris-imidazole buffer solution (pH=8.1) and 125 μl of a 1 mM S-2238 solution is added to make the total volume to 1.20 ml. The mixture is incubated at a temperature of 37° C. for 5 minutes in a constant temperature bath. To this mixture, 0.05 ml of bovine trypsin is added and the absorbance, at 405 nm, of the p-nitroaniline formed per minute is determined at a temperature of 37° C. by using the so-called initial velocity method. Thus, the concentration I50 (μmol) of a inhibitor sample, at which the absorbance is one half (i.e., 1/2) of that obtained in the absence of the inhibitor sample, is determined.

human urokinase = human urokinase (Homo sapiens, UniProt P00749); experiment: biochemical; conditions: read-out: Urokinase S-2444 I50
Method: Determination of inhibition activity for S-2444 decomposition
(§1) An inhibitor sample is dissolved in a 0.05 M Tris-hydrochloric acid buffer solution (pH=8.8) to make the total volume to 400 μl. To this solution, 50 μl of a 1 mM S-2444 solution is added and the mixture is incubated at a temperature of 37° C. for 5 minutes in a constant temperature bath. Then, 50 μl of a 500 unit/ml human urokinase is added and the mixture is incubated at a temperature of 37° C. for 5 minutes. Thereafter, 50 μl of 50% acetic acid is added to terminate the reaction. The absorbance of the p-nitroaniline formed in the reaction mixture is measured at 405 nm. Thus, the concentration I50 (μmol) of the inhibitor sample, at which the absorbance is one half (i.e., 1/2) of that obtained in the absence of the inhibitor sample, is determined.

bovine thrombin [1] = target: T2, bovine thrombin (Bos taurus, UniProt P00735); experiment: Antithrombin activity: inhibition of S-2238 decomposition; assay type: biochemical; conditions: Table 2; substrate S-2238, pH 8.3, 37° C.; read-out: Thrombin S-2238 I50
T2 construct: a 0.2 unit/ml bovine thrombin solution
Method: An inhibitor sample is dissolved in a 0.05 M Tris-hydrochloric acid buffer solution (pH=8.3) to make a total volume of 400 μl. […] Thus, the concentration I50 (μmol) of the inhibitor sample at which the absorbance is one half (i.e., 1/2) of that obtained in the absence of the inhibitor sample, is determined.

human plasma kallikrein = human plasma kallikrein (Homo sapiens, UniProt P03952); experiment: Anti-plasma kallikrein activity: inhibition of S-2302 decomposition; assay type: biochemical; conditions: Table 2; substrate S-2302, pH 7.8, 37° C.; read-out: Plasma Kallikrein S-2302 I50
human plasma kallikrein, sequence (P03952 391-638 limits assumed): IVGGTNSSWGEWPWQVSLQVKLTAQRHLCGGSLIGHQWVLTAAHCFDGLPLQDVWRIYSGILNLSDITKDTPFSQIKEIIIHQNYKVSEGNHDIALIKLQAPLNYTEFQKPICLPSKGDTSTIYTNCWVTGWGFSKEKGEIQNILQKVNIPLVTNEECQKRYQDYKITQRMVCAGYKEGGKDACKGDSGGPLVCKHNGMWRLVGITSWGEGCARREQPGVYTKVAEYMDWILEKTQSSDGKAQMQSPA
human plasma kallikrein, sequence (P03952 20-390 limits assumed): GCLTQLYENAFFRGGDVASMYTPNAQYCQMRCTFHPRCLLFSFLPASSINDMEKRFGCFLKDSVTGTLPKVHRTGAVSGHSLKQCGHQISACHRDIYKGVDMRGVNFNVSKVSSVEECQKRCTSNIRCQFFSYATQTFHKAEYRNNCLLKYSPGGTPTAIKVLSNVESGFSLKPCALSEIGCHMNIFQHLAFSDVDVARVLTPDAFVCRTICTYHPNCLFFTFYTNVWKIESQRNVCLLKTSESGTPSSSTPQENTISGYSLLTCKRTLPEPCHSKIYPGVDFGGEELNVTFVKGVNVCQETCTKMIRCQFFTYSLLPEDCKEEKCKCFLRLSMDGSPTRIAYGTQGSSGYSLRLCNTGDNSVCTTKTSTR
Method: Determination of inhibition activity for S-2302 decomposition
as §1, with “solution (pH=7.8)” for “solution (pH=8.8)”, “a 2” for “a 1”, “mM S-2302” for “mM S-2444”, “a 0.12” for “a 500”, “human plasma kallikrein” for “human urokinase”

human plasmin [2] = target: T3, human plasmin (Homo sapiens, UniProt P00747); experiment: Antiplasmin activity: inhibition of S-2251 decomposition; assay type: biochemical; conditions: Table 2; substrate S-2251, pH 7.4, 37° C.
T3 sequence (P00747 581-810 limits assumed): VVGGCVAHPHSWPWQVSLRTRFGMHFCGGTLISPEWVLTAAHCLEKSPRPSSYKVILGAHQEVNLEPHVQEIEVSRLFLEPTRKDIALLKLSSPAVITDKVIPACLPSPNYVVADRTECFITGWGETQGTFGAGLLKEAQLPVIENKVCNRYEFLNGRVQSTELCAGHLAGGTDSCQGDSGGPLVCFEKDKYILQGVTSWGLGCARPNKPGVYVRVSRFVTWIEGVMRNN
T3 sequence (P00747 97-580 limits assumed): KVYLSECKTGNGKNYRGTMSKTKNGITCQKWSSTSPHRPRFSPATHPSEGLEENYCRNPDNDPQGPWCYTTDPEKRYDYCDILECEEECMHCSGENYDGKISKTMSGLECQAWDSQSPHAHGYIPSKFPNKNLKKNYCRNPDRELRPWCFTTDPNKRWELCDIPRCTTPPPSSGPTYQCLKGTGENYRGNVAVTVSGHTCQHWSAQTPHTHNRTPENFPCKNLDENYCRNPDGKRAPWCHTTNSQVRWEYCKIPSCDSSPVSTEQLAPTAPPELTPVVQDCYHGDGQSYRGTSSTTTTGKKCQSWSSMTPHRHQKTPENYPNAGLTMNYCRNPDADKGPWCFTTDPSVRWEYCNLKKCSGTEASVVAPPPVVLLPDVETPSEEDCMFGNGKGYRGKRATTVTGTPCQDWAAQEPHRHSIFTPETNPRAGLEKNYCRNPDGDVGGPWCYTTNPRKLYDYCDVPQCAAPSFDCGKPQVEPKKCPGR
Method: An inhibitor sample is dissolved in a 0.05 M Tris-hydrochloric acid buffer solution (pH=7.4) to make the total volume to 400 μl. […] Then, 50 μl of a 0.2 casein unit/ml human plasmin is added and the mixture is incubated at a temperature of 37° C. for 4 minutes. Thereafter, the reaction is stopped by adding 50 μl of 50% acetic acid.
Thus, the concentration I50 (μmol) of the inhibitor sample, at which the absorbance is one half (i.e., 1/2) of that obtained in the absence of the inhibitor, is determined.

human plasmin [3] = target: T3, human plasmin; experiment: Antiplasmin activity: inhibition of fibrin decomposition; assay type: biochemical; conditions: Table 2, pH 7.4, 37° C., read-out: Plasmin Fibrin I50 (concentration doubling fibrin dissolution time)
Method: (i) Determination of inhibition activity for fibrin decomposition
An inhibitor sample is dissolved in a 0.18 M borate-physiological salt buffer solution (pH=7.4) to make the total volume to 600 μl. To this buffer solution, 200 μl of a 0.2% bovine fibrinogen, 100 μl of a 0.3 casein unit/ml human plasmin solution, and 100 μl of a 50 unit/ml bovine thrombin solution, all dissolved in the above-mentioned buffer, are added at a temperature of 37° C. in a constant temperature bath. Then, the dissolution time of the fibrin mass formed above is determined.

bovine thrombin [4] = target: T2, bovine thrombin; experiment: Antithrombin activity: inhibition of fibrin formation (fibrinogen); assay type: biochemical
Method: (i) Determination of inhibition activity against fibrin formation
An inhibitor sample is dissolved in a 0.18 M borate-physiological salt buffer solution (pH= 7.4) to make the total volume to 500 μl. […] Thus, a coagulation time is determined. The inhibitor concentration I50 (μmol), at which the coagulation time obtained in the absence of the inhibitor is extended twice, is determined.

[5] = Table 2, substrate S-2444, pH 8.8, 37° C.
[6] = Table 2, bovine fibrinogen, pH 7.4, 37° C., read-out: Thrombin Fibrinogen I50 (concentration doubling coagulation time)

Compound	IC50 (bovine trypsin)	IC50 (human urokinase; [5])	IC50 (bovine thrombin [1])	IC50 (human plasma kallikrein)	IC50 (human plasmin [2])	IC50 (human plasmin [3])	IC50 (bovine thrombin [4]; [6])	IC50 (bovine thrombin [4])	IC50 (human urokinase)
NC[C@H]1CC[C@H](C(=O)NC(Cc2cccc(Oc3ccccc3)c2)C(=O)O)CC1 (mixture of isomers) [Compound 58, N-(trans-4-aminomethylcyclohexylcarbonyl)-3-phenoxy-DL-phenylalanine]	> 150 µM	> 1000 µM	> 1000 µM	600 µM	–	–	–	–	–
NC[C@H]1CC[C@H](C(=O)NC(Cc2cccc(Oc3ccccc3)c2)C(=O)NCC(=O)c2ccccc2)CC1 (stereo partly shown) [Compound 15]	> 150 µM	> 100 µM	–	> 200 µM	> 100 µM	> 100 µM	> 100 µM	–	–
CCOC(=O)C1CCN(C(=O)C(Cc2cccc(Oc3ccccc3)c2)NC(=O)[C@H]2CC[C@H](CNC(=N)N)CC2)CC1 (stereo partly shown) [Compound 31]	> 150 µM	> 500 µM	–	> 100 µM	160 µM	> 100 µM	> 100 µM	–	–
CC(=O)c1ccc(NC(=O)C(Cc2cccc(Oc3ccccc3)c2)NC(=O)c2ccc(NC(=N)N)cc2)cc1 (stereo not shown) [Compound 32]	15 µM	100 µM	–	2.2 µM	120 µM	> 25 µM	> 25 µM	–	–
NC[C@H]1CC[C@H](C(=O)NC(Cc2cccc(Oc3ccccc3)c2)C(=O)Nc2ccccn2)CC1 (stereo partly shown) [Compound 6]	> 15 µM	> 500 µM	–	11 µM	360 µM	190 µM	–	> 500 µM	–
CCOC(=O)C1CCCCN1C(=O)C(Cc1cccc(Oc2ccc(Br)cn2)c1)NC(=O)[C@H]1CC[C@H](CN)CC1 (stereo partly shown) [Compound 26]	> 150 µM	> 1000 µM	–	> 1000 µM	> 1000 µM	400 µM	> 1000 µM	–	–
Cc1ccc(NC(=O)C(Cc2cccc(Oc3ccccc3)c2)NC(=O)[C@H]2CC[C@H](CN)CC2)cc1 (stereo partly shown) [Compound 1]	15 µM	–	–	1.3 µM	46 µM	15 µM	–	> 100 µM	> 100 µM
CCOC(=O)c1cccc(NC(=O)C(Cc2cccc(Oc3ccccc3)c2)NC(=O)[C@H]2CC[C@H](CN)CC2)c1 (stereo partly shown) [Compound 3]	2.3 µM	> 100 µM	–	1.2 µM	31 µM	11 µM	> 100 µM	–	–
NC[C@H]1CC[C@H](C(=O)NC(Cc2cccc(Oc3ccccc3)c2)C(=O)Nc2ccncn2)CC1 (mixture of isomers) [Compound 12, N-(trans-4-aminomethylcyclohexylcarbonyl)-3-phenoxy-DL-phenylalanine 4-pyrimidylamide dihydrochloride]	> 150 µM	> 1000 µM	–	55 µM	1000 µM	130 µM	> 1000 µM	–	–
CCOC(=O)C(Cc1cccc(Oc2ccccc2)c1)NC(=O)[C@H]1CC[C@H](CN)CC1 (mixture of isomers) [Compound 57, N-(trans-4-aminomethylcyclohexylcarbonyl)-3-phenoxy-DL-phenylalanine ethyl ester hydrochloride]	25 µM	350 µM	–	5.7 µM	260 µM	110 µM	> 1000 µM	–	–
NC[C@H]1CC[C@H](C(=O)NC(Cc2cccc(Oc3ccccc3)c2)C(N)=O)CC1 (mixture of isomers) [Compound 21, N-(trans-4-aminomethylcyclohexylcarbonyl)-3-phenoxy-DL-phenylalanine amide hydrochloride]	> 150 µM	> 1000 µM	–	> 400 µM	320 µM	150 µM	–	> 200 µM	–
CCOC(=O)C1CCN(C(=O)C(Cc2cccc(Oc3ccccc3)c2)NC(=O)[C@H]2CC[C@H](CN)CC2)CC1 (stereo partly shown) [Compound 18]	> 150 µM	> 1000 µM	–	> 500 µM	430 µM	> 100 µM	> 100 µM	–	–
NC[C@H]1CC[C@H](C(=O)NC(Cc2cccc(C(=O)c3ccccc3)c2)C(=O)N2CCOCC2)CC1 (stereo partly shown) [Compound 24]	> 150 µM	> 1000 µM	–	> 1000 µM	> 1000 µM	700 µM	> 1000 µM	–	–
NC[C@H]1CC[C@H](C(=O)NC(Cc2cccc(Oc3ccccc3)c2)C(=O)N2CCOCC2)CC1 (stereo partly shown) [Compound 19]	> 150 µM	> 1000 µM	–	> 1000 µM	> 1000 µM	> 1000 µM	> 1000 µM	–	–
COCCCNC(=O)C(Cc1cccc(C(=O)c2ccccc2)c1)NC(=O)[C@H]1CC[C@H](CN)CC1 (stereo partly shown) [Compound 23]	8.2 µM	> 500 µM	–	350 µM	750 µM	620 µM	> 1000 µM	–	–
COC(=O)[C@@H](C)NC(=O)C(Cc1cccc(Oc2ccccc2)c1)NC(=O)[C@H]1CC[C@H](CN)CC1 (stereo partly shown) [Compound 16]	> 150 µM	> 500 µM	–	> 1000 µM	> 1000 µM	> 1000 µM	> 1000 µM	–	–
NC[C@H]1CC[C@H](C(=O)NC(Cc2cccc(Oc3ccccc3)c2)C(=O)Nc2ccnc(Cl)c2)CC1 (mixture of isomers) [Compound 9, N-(trans-4-aminomethylcylohexylcarbonyl)-3-phenoxy-DL-phenylalanine 4-(2-chloro)pyridylamide dihydrochloride]	2.3 µM	–	> 1000 µM	–	–	–	> 500 µM	–	–
COCCCNC(=O)C(Cc1cccc(Oc2ccccc2)c1)NC(=O)[C@H]1CC[C@H](CN)CC1 (mixture of isomers) [Compound 14, N-(trans-4-amnomethylcyclohexylcarboonyl)-3-phenoxy-DL-phenylalanine 3-methoxypropylamide hydrochloride]	100 µM	> 500 µM	–	340 µM	940 µM	340 µM	> 500 µM	–	–
